# According to US4983601A, “Benzo(b)pyrrolobenzodiazepines” (Hoechst-Roussel Pharmaceutical Inc., priority 1989, dated 1991):
# System: phenyl-para-quinone induced writhes
# Test: phenyl-para-quinone writhing assay in mice (analgetic activity)
# Type: in vivo
# Settings: screening dose of 20 mg/kg, subcutaneous (sc)
# Procedure: Exptl. Biol. Med., 95, 729 ([…])]. Presented in the Table is the analgetic activity of representative compounds of the invention and a standard, expressed as the estimated subcutaneous dose at which the mice experience a 50% reduction in phenyl-para-quinone induced writhes, i.e., the ED50 -value, or the percent inhibition of writhing caused by a screening dose of 20 mg/kg of body weight administered subcutaneously (sc).
row,SMILES,"Analgetic Activity, percent inhibition of writhing [%]"
1,"O=c1n(CCc2ccccc2)nc2n1-c1ccccc1N1CCc3cccc-2c31 [1,2-Dihydro-7-(2-phenylethyl)benzo[b]pyrrolo[3,2,1-jk][1,2,4]triazolo[4,3-d][1,4]benzodiazepin-8(7H)-one]",62
2,"O=c1n(CCCc2noc3cc(F)ccc23)nc2n1-c1cc(Br)ccc1N1CCc3cccc-2c31 [11-Bromo-1,2-dihydro-7-[3-(6-fluoro-1,2-benzisoxazol-3-yl)-1-propyl]benzo[b]pyrrolo[3,2,1-jk][1,2,4]triazolo[4,3-d][1,4]benzodiazepin-8(7H)-one]",54
3,"Brc1ccc2c(c1)-n1nnnc1-c1cccc3c1N2CC3 [11-Bromo-1,2-dihydrobenzo[b]pyrrolo[3,2,1-jk]tetrazolo[1,5-d][1,4]benzodiazepine]",56
4,"Cc1ccc2c(c1)n1c(CN(C)C)nnc1c1cccc3ccn2c31 [11-Methyl-8-(dimethylamino)methylbenzo[b]pyrrolo[3,2,1-jk][1,2,4]triazolo[4,3-d][1,4]benzodiazepine]",57

# Same assay, conditions: subcutaneous (sc)
row,SMILES,"Analgetic Activity, ED50 (estimated subcutaneous dose at which the mice experience a 50% reduction in phenyl-para-quinone induced writhes) [mg/kg]"
1,"CCC(=O)O[C@](Cc1ccccc1)(c1ccccc1)[C@H](C)CN(C)C [propoxyphene, reference compound]",3.9
2,"CN(C)Cc1nnc2n1-c1cc(Br)ccc1N1CCc3cccc-2c31 [11-Bromo-1,2-dihydro-8-(dimethylamino)methylbenzo[b]pyrrolo[3,2,1-jk][1,2,4]triazolo[4,3-d][1,4]benzodiazepine]",3.55
